In ChEMBL document CHEMBL6134868, “Novel Aryl Sulfonium Modification on Vancomycin to Tackle MRSA and VRE In Vitro and In Vivo through Dual Enhanced Cell-Wall and Membrane Inhibition” (J Med Chem, 2025):
Values after ≈ are worked out from the molar mass of the structure shown. Positions of bridges follow the written chain, without caps; N, C: chain ends. Non-standard residues stand in square brackets, D forms with d. Residues, ends and D or L forms follow the SMILES beside them. *: point of attachment. X1 = CC[C@H](C)CCCCC(=O)*; Dab = NCC[C@H](N)C(=O)O

Assays:
Format in all cases: functional
Settings in all cases: time 16-24 hrs
[1] = tested on: Klebsiella pneumoniae; assay: Antibacterial activity against Klebsiella pneumoniae KP-1 incubated for 16 to 24 hrs by broth microdilution assay
[2] = tested on: Enterococcus faecium; assay: Antibacterial activity against vancomycin-resistant Enterococcus faecium Efm-HS-vb01 harboring VanB phenotype incubated for 16 to 24 hrs by broth microdilution assay
[3] = tested on: Enterococcus faecium; assay: Antibacterial activity against vancomycin-resistant Enterococcus faecium Efm-HS-08257 harboring VanM phenotype incubated for 16 to 24 hrs by broth microdilution assay
[4] = tested on: Staphylococcus aureus; assay: Antibacterial activity against vancomycin-intermediate Staphylococcus aureus Mu50 incubated for 16 to 24 hrs by broth microdilution assay
[5] = tested on: Enterococcus faecium; assay: Antibacterial activity against vancomycin-resistant Enterococcus faecium Efm-HS-vb02 harboring VanB phenotype incubated for 16 to 24 hrs by broth microdilution assay
[6] = tested on: Pseudomonas aeruginosa; assay: Antibacterial activity against Pseudomonas aeruginosa PAO1 incubated for 16 to 24 hrs by broth microdilution assay
[7] = tested on: Escherichia coli; assay: Antibacterial activity against Escherichia coli AB1157 incubated for 16 to 24 hrs by broth microdilution assay
[8] = tested on: Staphylococcus aureus; assay: Antibacterial activity against methicillin-resistant Staphylococcus aureus USA300 LAC incubated for 16 to 24 hrs by broth microdilution assay
[9] = tested on: Enterococcus faecium; assay: Antibacterial activity against vancomycin-resistant Enterococcus faecium Efm-HS-0649 harboring VanA phenotype incubated for 16 to 24 hrs by broth microdilution assay
[10] = tested on: Acinetobacter baumannii; assay: Antibacterial activity against carbapenem-resistant Acinetobacter baumannii CRAB-1 clinical isolate incubated for 16 to 24 hrs by broth microdilution assay
[11] = tested on: Acinetobacter baumannii; assay: Antibacterial activity against Acinetobacter baumannii ATCC19606 incubated for 16 to 24 hrs by broth microdilution assay

CN[C@H](CC(C)C)C(=O)N[C@H]1C(=O)N[C@@H](CC(N)=O)C(=O)N[C@H]2C(=O)N[C@H]3C(=O)N[C@H](C(=O)N[C@H](C(=O)NCCC[S+](C)CC(O)COc4ccc(Cl)cc4)c4cc(O)cc(O)c4-c4cc3ccc4O)[C@H](O)c3ccc(c(Cl)c3)Oc3cc2cc(c3O[C@@H]2O[C@H](CO)[C@@H](O)[C@H](O)[C@H]2O[C@H]2C[C@](C)(N)[C@H](O)[C@H](C)O2)Oc2ccc(cc2Cl)[C@H]1O.O=C([O-])C(F)(F)F (stereo not given in full)
MIC [1]: > 128 µg/mL
MIC [2]: 8 µg/mL
MIC [3]: 8 µg/mL
MIC [4]: 1 µg/mL
MIC [5]: 4 µg/mL
MIC [6]: 128 µg/mL
MIC [7]: 16 µg/mL
MIC [8]: ≤ 0.063 µg/mL
MIC [9]: 16 µg/mL
MIC [10]: 128 µg/mL
MIC [11]: 32 µg/mL

CN[C@H](CC(C)C)C(=O)N[C@H]1C(=O)N[C@@H](CC(N)=O)C(=O)N[C@H]2C(=O)N[C@H]3C(=O)N[C@H](C(=O)N[C@H](C(=O)NCCC[S+](C)CC(O)COc4ccc(Br)cc4)c4cc(O)cc(O)c4-c4cc3ccc4O)[C@H](O)c3ccc(c(Cl)c3)Oc3cc2cc(c3O[C@@H]2O[C@H](CO)[C@@H](O)[C@H](O)[C@H]2O[C@H]2C[C@](C)(N)[C@H](O)[C@H](C)O2)Oc2ccc(cc2Cl)[C@H]1O.O=C([O-])C(F)(F)F (stereo not given in full)
MIC [1]: > 128 µg/mL
MIC [2]: 4 µg/mL
MIC [3]: 4 µg/mL
MIC [4]: 1 µg/mL
MIC [5]: 4 µg/mL
MIC [6]: 128 µg/mL
MIC [7]: 16 µg/mL
MIC [8]: ≤ 0.063 µg/mL
MIC [9]: 8 µg/mL
MIC [10]: 64 µg/mL
MIC [11]: 32 µg/mL

CN[C@H](CC(C)C)C(=O)N[C@H]1C(=O)N[C@@H](CC(N)=O)C(=O)N[C@H]2C(=O)N[C@H]3C(=O)N[C@H](C(=O)N[C@H](C(=O)O)c4cc(O)c(CNCCC[S+](C)CC(O)COc5ccc(-c6ccc(Cl)cc6)cc5)c(O)c4-c4cc3ccc4O)[C@H](O)c3ccc(c(Cl)c3)Oc3cc2cc(c3O[C@@H]2O[C@H](CO)[C@@H](O)[C@H](O)[C@H]2O[C@H]2C[C@](C)(N)[C@H](O)[C@H](C)O2)Oc2ccc(cc2Cl)[C@H]1O.O=C([O-])C(F)(F)F (stereo not given in full)
MIC [1]: 128 µg/mL
MIC [2]: ≤ 0.063 µg/mL
MIC [3]: 2 µg/mL
MIC [4]: ≤ 0.063 µg/mL
MIC [5]: ≤ 0.063 µg/mL
MIC [6]: > 128 µg/mL
MIC [7]: 8 µg/mL
MIC [8]: ≤ 0.063 µg/mL
MIC [9]: 0.5 µg/mL
MIC [10]: 16 µg/mL
MIC [11]: 16 µg/mL

CN[C@H](CC(C)C)C(=O)N[C@H]1C(=O)N[C@@H](CC(N)=O)C(=O)N[C@H]2C(=O)N[C@H]3C(=O)N[C@H](C(=O)N[C@H](C(=O)NCCC[S+](C)CC(O)COc4ccc(C(F)(F)F)cc4)c4cc(O)cc(O)c4-c4cc3ccc4O)[C@H](O)c3ccc(c(Cl)c3)Oc3cc2cc(c3O[C@@H]2O[C@H](CO)[C@@H](O)[C@H](O)[C@H]2O[C@H]2C[C@](C)(N)[C@H](O)[C@H](C)O2)Oc2ccc(cc2Cl)[C@H]1O.O=C([O-])C(F)(F)F (stereo not given in full)
MIC [1]: > 128 µg/mL
MIC [2]: 8 µg/mL
MIC [3]: 8 µg/mL
MIC [4]: 1 µg/mL
MIC [5]: 4 µg/mL
MIC [6]: 128 µg/mL
MIC [7]: 32 µg/mL
MIC [8]: ≤ 0.063 µg/mL
MIC [9]: 16 µg/mL
MIC [10]: 64 µg/mL
MIC [11]: 32 µg/mL

CN[C@H](CC(C)C)C(=O)N[C@H]1C(=O)N[C@@H](CC(N)=O)C(=O)N[C@H]2C(=O)N[C@H]3C(=O)N[C@H](C(=O)N[C@H](C(=O)O)c4cc(O)c(CNCCC[S+](C)CC(O)COc5ccccc5)c(O)c4-c4cc3ccc4O)[C@H](O)c3ccc(c(Cl)c3)Oc3cc2cc(c3O[C@@H]2O[C@H](CO)[C@@H](O)[C@H](O)[C@H]2O[C@H]2C[C@](C)(N)[C@H](O)[C@H](C)O2)Oc2ccc(cc2Cl)[C@H]1O.O=C([O-])C(F)(F)F (stereo not given in full)
MIC [1]: > 128 µg/mL
MIC [2]: 2 µg/mL
MIC [3]: 64 µg/mL
MIC [4]: 4 µg/mL
MIC [5]: 4 µg/mL
MIC [6]: > 128 µg/mL
MIC [7]: 32 µg/mL
MIC [8]: 0.5 µg/mL
MIC [9]: 128 µg/mL
MIC [10]: 128 µg/mL
MIC [11]: 128 µg/mL

CC(C)CCCCC(=O)N[C@@H](CCN)C(=O)N[C@H](C(=O)N[C@@H](CCN)C(=O)N[C@H]1CCNC(=O)[C@H]([C@@H](C)O)NC(=O)[C@H](CCN)NC(=O)[C@H](CCN)NC(=O)[C@H](CC(C)C)NC(=O)[C@@H](Cc2ccccc2)NC(=O)[C@H](CCN)NC1=O)[C@@H](C)O.CC[C@H](C)CCCCC(=O)N[C@@H](CCN)C(=O)N[C@H](C(=O)N[C@@H](CCN)C(=O)N[C@H]1CCNC(=O)[C@H]([C@@H](C)O)NC(=O)[C@H](CCN)NC(=O)[C@H](CCN)NC(=O)[C@H](CC(C)C)NC(=O)[C@@H](Cc2ccccc2)NC(=O)[C@H](CCN)NC1=O)[C@@H](C)O (X1-[Dab]T[Dab][Dab][Dab][dF]L[Dab][Dab]T; lactam 4-C)
MIC [1]: ≤ 0.063 µg/mL
MIC [6]: 0.5 µg/mL
MIC [7]: 0.125 µg/mL
MIC [10]: 0.125 µg/mL
MIC [11]: 0.125 µg/mL

CN[C@H](CC(C)C)C(=O)N[C@H]1C(=O)N[C@@H](CC(N)=O)C(=O)N[C@H]2C(=O)N[C@H]3C(=O)N[C@H](C(=O)N[C@H](C(=O)O)c4cc(O)c(CNCCC[S+](C)C[C@@H](O)COc5ccccc5)c(O)c4-c4cc3ccc4O)[C@H](O)c3ccc(c(Cl)c3)Oc3cc2cc(c3O[C@@H]2O[C@H](CO)[C@@H](O)[C@H](O)[C@H]2O[C@H]2C[C@](C)(N)[C@H](O)[C@H](C)O2)Oc2ccc(cc2Cl)[C@H]1O.O=C([O-])C(F)(F)F (stereo not given in full)
MIC [1]: > 128 µg/mL
MIC [2]: 2 µg/mL
MIC [3]: 128 µg/mL
MIC [4]: 4 µg/mL
MIC [5]: 4 µg/mL
MIC [6]: > 128 µg/mL
MIC [7]: 16 µg/mL
MIC [8]: 0.5 µg/mL
MIC [9]: > 128 µg/mL
MIC [10]: > 128 µg/mL
MIC [11]: 128 µg/mL

CN[C@H](CC(C)C)C(=O)N[C@H]1C(=O)N[C@@H](CC(N)=O)C(=O)N[C@H]2C(=O)N[C@H]3C(=O)N[C@H](C(=O)N[C@H](C(=O)NCCC[S+](C)C[C@H](O)COc4ccccc4)c4cc(O)cc(O)c4-c4cc3ccc4O)[C@H](O)c3ccc(c(Cl)c3)Oc3cc2cc(c3O[C@@H]2O[C@H](CO)[C@@H](O)[C@H](O)[C@H]2O[C@H]2C[C@](C)(N)[C@H](O)[C@H](C)O2)Oc2ccc(cc2Cl)[C@H]1O.O=C([O-])C(F)(F)F (stereo not given in full)
MIC [1]: > 128 µg/mL
MIC [2]: 16 µg/mL
MIC [3]: 16 µg/mL
MIC [4]: 1 µg/mL
MIC [5]: 4 µg/mL
MIC [6]: 128 µg/mL
MIC [7]: 16 µg/mL
MIC [8]: 0.25 µg/mL
MIC [9]: 32 µg/mL
MIC [10]: > 128 µg/mL
MIC [11]: 64 µg/mL

C[C@@H](O)[C@H]1C(=O)N2C(C(=O)O)=C(S[C@@H]3CN[C@H](C(=O)N(C)C)C3)[C@H](C)[C@H]12 [MEROPENEM]
MIC [10]: > 128 µg/mL
MIC [11]: 2 µg/mL (≈ 5.22 µM)

CC(=O)NC[C@H]1CN(c2ccc(N3CCOCC3)c(F)c2)C(=O)O1 [LINEZOLID]
MIC [1]: > 128 µg/mL
MIC [2]: 2 µg/mL (≈ 5.93 µM)
MIC [3]: 2 µg/mL (≈ 5.93 µM)
MIC [5]: 2 µg/mL (≈ 5.93 µM)
MIC [6]: 128 µg/mL (≈ 379 µM)
MIC [7]: 128 µg/mL (≈ 379 µM)
MIC [8]: 1 µg/mL (≈ 2.96 µM)
MIC [9]: 1 µg/mL (≈ 2.96 µM)
MIC [10]: 128 µg/mL (≈ 379 µM)
MIC [11]: 128 µg/mL (≈ 379 µM)

CCCCCCCCCC(=O)N[C@@H](Cc1c[nH]c2ccccc12)C(=O)N[C@@H](CC(N)=O)C(=O)N[C@@H](CC(=O)O)C(=O)N[C@@H]1C(=O)NCC(=O)N[C@@H](CCCN)C(=O)N[C@@H](CC(=O)O)C(=O)N[C@H](C)C(=O)N[C@@H](CC(=O)O)C(=O)NCC(=O)N[C@H](CO)C(=O)N[C@@H]([C@@H](C)CC(=O)O)C(=O)N[C@@H](CC(=O)c2ccccc2N)C(=O)O[C@@H]1C
MIC [2]: 8 µg/mL (≈ 4.94 µM)
MIC [3]: 8 µg/mL (≈ 4.94 µM)
MIC [4]: 4 µg/mL (≈ 2.47 µM)
MIC [5]: 4 µg/mL (≈ 2.47 µM)
MIC [8]: 1 µg/mL (≈ 0.617 µM)
MIC [9]: 8 µg/mL (≈ 4.94 µM)
